Assay results as given in patent US6908742B2, “Methods and kits for the detection of endotoxin” (priority 1996, dated 2005).

Experiments:
[1] = biological target: T1, A1 adenosine receptors in membranes from feline PAECs (Felis catus, UniProt A0ABI7XJE9); assay: Saturation experiments with [3H] DPCPX in feline PAEC membranes; format: binding
T1 sequence (A0ABI7XJE9 1-326): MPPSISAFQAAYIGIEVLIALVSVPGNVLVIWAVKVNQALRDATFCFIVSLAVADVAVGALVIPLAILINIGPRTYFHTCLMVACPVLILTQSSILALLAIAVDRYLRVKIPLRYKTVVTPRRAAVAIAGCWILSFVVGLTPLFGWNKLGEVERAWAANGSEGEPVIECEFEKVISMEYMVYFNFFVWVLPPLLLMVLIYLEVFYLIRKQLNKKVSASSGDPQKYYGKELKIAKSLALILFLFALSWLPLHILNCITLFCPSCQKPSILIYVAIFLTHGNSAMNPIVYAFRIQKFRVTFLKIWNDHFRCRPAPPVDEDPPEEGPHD
Experimental: (§1) Feline PAECs were grown to confluency in […] culture plates. The confluent cells were washed twice with KSP buffer (10 mM KH2P04, 50 mM sucrose). The cells were scraped and suspended in KSP buffer at a concentration of 1×10^6 cells/ml in two conical centrifuge tubes. The tubes were centrifuged at 1000 g×2 minutes and the buffer discarded. The cells from one tube were then suspended in deoxygenated buffer (bubbled with N2 gas for 10 minutes) and bubbled with N2 gas for 30 seconds to insure hypoxic conditions. These cells were then incubated for 2 hours in this hypoxic buffer. Cells from the other tube were suspended in normal KSP buffer and incubated at 37° C. for 2 hours. At the end of incubation, cells were homogenized immediately for membrane preparation.
For membrane preparation, the cells were homogenized by sonication and centrifuged at 1000× g for 10 minutes. The supernatant was centrifuged again at 30,000× g for 30 minutes. The membrane fraction was reconstituted with Tris buffer for radioligand binding studies.
(§2) Binding of [^3H] DPCPX or [^3H] CCPA to membranes was carried out in an assay volume of 500 μl Tris-HCl, pH 7.4, MgCl2 (10 mM) (for membranes from feline PAECs only) containing [^3H] DPCPX or [^3H] CCPA (0.01 to 4 nM). Nonspecific binding of [^3H] DPCPX or [^3H] CCPA was determined in the presence of R-PIA (100 μM) or theophylline (1 mM), respectively. To remove endogenous adenosine, adenosine deaminase was present in all binding assays at a concentration of 0.2 U/ml. Incubations were performed for 2 hours at room temperature for sheep and hamster brain membranes and 4° C. for feline PAEC membranes. Incubations were terminated by rapid removal of the incubation buffer by filtration through Whatman GF/B filters (Whatman Inc., Clifton, N.J.). The membrane bound radioactivity was measured by scintillation counting of the filter paper. To determine Kd, Bmax, and nonspecific binding in sheep and hamster brain and feline PAEC membranes, experiments are performed in duplicate.

[2] = biological target: T2, A1 adenosine receptors in hamster brain membranes (Mesocricetus auratus, UniProt A0A1U8BVR4); assay: Saturation experiments with [3H] DPCPX or [3H] CCPA in hamster brain membranes; format: binding
T2 sequence (A0A1U8BVR4 1-326): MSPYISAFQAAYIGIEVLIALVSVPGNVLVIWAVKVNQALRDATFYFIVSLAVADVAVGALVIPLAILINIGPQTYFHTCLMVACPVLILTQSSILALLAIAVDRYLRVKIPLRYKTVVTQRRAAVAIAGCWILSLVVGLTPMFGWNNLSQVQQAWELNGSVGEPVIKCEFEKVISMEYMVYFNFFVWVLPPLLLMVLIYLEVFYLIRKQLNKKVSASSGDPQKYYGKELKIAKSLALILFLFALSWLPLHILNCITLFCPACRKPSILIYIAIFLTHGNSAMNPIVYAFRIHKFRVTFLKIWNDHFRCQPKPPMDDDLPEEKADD
Experimental: (§3) Frozen sheep brain (Pel Freeze, Rodgers, Ark.) or hamster brain (Harlan Bioproducts, Indianapolis, Ind.) was thawed and homogenized in 10 volumes of cold (4° C.), 0.32 M sucrose. The homogenate was centrifuged at 1,000× g for 10 minutes to remove the nuclear fraction. The supernatant was centrifuged at 30,000× g for 30 minutes. The resulting pellet was resuspended in 10 ml water and left on ice for 30 minutes to obtain synaptosomal membranes. The suspension was then centrifuged at 48,000× g for 10 minutes and the membranes resuspended in 50 mM Tris-HCl (pH 7.4) at a concentration of 8 mg protein/ml, frozen in liquid nitrogen, and stored at −20° C. until binding assay.
as §2

[3] = biological target: T3, A1 adenosine receptors in sheep brain membranes (Ovis aries, UniProt A0ACI6R3B7); assay: Saturation experiments with [3H] DPCPX or [3H] CCPA in sheep brain membranes; format: binding
T3 sequence (A0ACI6R3B7 1-326): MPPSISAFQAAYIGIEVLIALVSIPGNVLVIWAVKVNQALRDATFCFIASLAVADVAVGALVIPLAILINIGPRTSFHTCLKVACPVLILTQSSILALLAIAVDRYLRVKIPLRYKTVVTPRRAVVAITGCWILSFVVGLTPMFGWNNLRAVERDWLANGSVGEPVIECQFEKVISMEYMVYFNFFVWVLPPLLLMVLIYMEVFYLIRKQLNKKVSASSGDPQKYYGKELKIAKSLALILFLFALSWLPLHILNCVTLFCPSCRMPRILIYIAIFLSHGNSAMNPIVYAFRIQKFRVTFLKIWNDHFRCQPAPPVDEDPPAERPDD
Experimental: as §3, §2

[4] = biological target: T1, A1 adenosine receptors in membranes from feline PAECs; assay: Competition experiments for [3H] DPCPX in feline PAEC membranes; format: binding; conditions: cultured feline PAEC membranes
Experimental: as §1
For membrane preparation, the cells were homogenized by sonication and centrifuged at 1000× g for 10 minutes. The supernatant was centrifuged again at 30,000× g for 30 minutes. […]
Radioligand binding data are analyzed with the use of Graph Pad Prism by nonlinear regression analysis equipped with a statistical package. Data are expressed as mean±SEM. Hill plots and Schild plots are determined for each species of LPS in competition experiments and are used as standard curves for the determinations of the concentration of endotoxin in samples with unknown concentrations of endotoxin.

A1 adenosine receptor = biological target: T4, A1 adenosine receptor (Homo sapiens, UniProt P30542); conditions: in tissues; cited from earlier work
T4 construct: host or cells: tissues (not specified)
T4 sequence (P30542 1-326): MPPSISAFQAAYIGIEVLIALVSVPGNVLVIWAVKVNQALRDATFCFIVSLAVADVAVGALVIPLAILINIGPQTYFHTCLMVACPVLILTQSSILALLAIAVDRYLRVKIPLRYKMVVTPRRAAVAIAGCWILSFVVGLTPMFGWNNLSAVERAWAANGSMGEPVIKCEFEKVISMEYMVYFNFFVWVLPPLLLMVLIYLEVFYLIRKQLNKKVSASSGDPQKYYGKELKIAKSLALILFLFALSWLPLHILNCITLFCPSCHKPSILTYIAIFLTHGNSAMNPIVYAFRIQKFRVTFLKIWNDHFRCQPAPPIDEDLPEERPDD

Question: Which results are given for `CCCn1c(=O)c2[nH]c(C3CCCC3)nc2n(CCC)c1=O` [[^3H]-DPCPX, [^3H]-1,3-dipropyl-8-cyclopentyladenosine xanthine]?
Answer: Bmax ([1]; hypoxia): 1458 fmoles/mg protein; Kd ([1]; hypoxia): 0.26 nM; Bmax ([1]; normoxia): 1064 fmoles/mg protein; Kd ([1]; normoxia): 0.33 nM; Kd ([2]; hamster brain membranes): 0.32 nM; Bmax ([2]; hamster brain membranes, [3H]-DPCPX saturation): 3733 fmoles/mg protein; Kd ([3]; sheep brain membranes): 0.37 nM; Bmax ([3]; sheep brain membranes, [3H]-DPCPX saturation): 2251 fmoles/mg protein

Question: For `Nc1nc(Nc2ccccc2)nc2c1ncn2[C@@H]1O[C@H](CO)[C@@H](O)[C@H]1O` [CV 1808, 2-phenylaminoadenosine], which “displacement of bound [3H] DPCPX” value [4] is on record?
Answer: did not displace

Question: With `CCCn1c(=O)c2[nH]c(C3CCCC3)nc2n(CCC)c1=O` [DPCPX, 1,3-dipropyl-8-cyclopentylxanthine] as the molecule, how does the nonspecific binding (A1 adenosine receptor) read?
Answer: less than 1%

Question: For `OC[C@H]1O[C@@H](n2cnc3c(NC4CCCC4)nc(Cl)nc32)[C@H](O)[C@@H]1O` [[^3H] CCPA, 2-chloro-N^6-cyclopentyladenosine], which “density of high affinity A1 adenosine receptors” value ([2]; hamster brain, determined using [3H] CCPA) is on record?
Answer: 1630 ± 60 fmol/mg

Question: What about the “density of high affinity A1 adenosine receptors” value ([3]; sheep brain, determined using [3H] CCPA) of the same molecule?
Answer: 1920 ± 250 fmol/mg
